Data: patent publication US20220228192A1, “Method To Evaluate Metabolic Activity Of Liver Enzymes” (Owlstone Medical Limited, priority 2018, published 2022)

Columns and labels:
[1] = Breath Biopsy: VOCs in exhaled breath after ingestion of a peppermint capsule; assay type: in vivo; conditions: for VOC level in breath compared to baseline pre-ingestion controls: breath captured 30 minutes after consumption of the peppermint capsule, FIG. 1; for VOC level in breath compared to baseline pre-ingestion controls / relative abundance among peppermint-related compounds in breath: single individual
Method: For comparison, two breath collections were made from the same individual prior to ingestion to provide a baseline concentration for the VOCs of interest. Breath samples were analysed in the Breath Biopsy® Clinical Lab by FAIMS and TD-GC-TOF mass spectrometry.

CYP3A4 = CYP3A4 (Homo sapiens, UniProt P08684); conditions: cited from earlier work
[2] = test system: CYP2C19 and CYP2C9 enzymes; assay: Clinical study: limonene in exhaled breath, patients treated with an atherothrombotic drug versus untreated controls; assay type: in vivo; conditions: drug metabolised by CYP2C19 and CYP2C9 competes with limonene metabolism; FIG. 5
Excerpt: FIG. 5. Limonene concentration in the exhaled breath of patients prescribed with an atherothrombotic drug that is metabolised by CYP2C19 and CYP2C9 enzymes.
The drug is metabolised by CYP2C19 and CYP2C9 enzymes. […] As less limonene is metabolised compare dot eh control group.

[3] = after consumption of the peppermint capsule

Sequence of CYP3A4 (P08684 whole entry): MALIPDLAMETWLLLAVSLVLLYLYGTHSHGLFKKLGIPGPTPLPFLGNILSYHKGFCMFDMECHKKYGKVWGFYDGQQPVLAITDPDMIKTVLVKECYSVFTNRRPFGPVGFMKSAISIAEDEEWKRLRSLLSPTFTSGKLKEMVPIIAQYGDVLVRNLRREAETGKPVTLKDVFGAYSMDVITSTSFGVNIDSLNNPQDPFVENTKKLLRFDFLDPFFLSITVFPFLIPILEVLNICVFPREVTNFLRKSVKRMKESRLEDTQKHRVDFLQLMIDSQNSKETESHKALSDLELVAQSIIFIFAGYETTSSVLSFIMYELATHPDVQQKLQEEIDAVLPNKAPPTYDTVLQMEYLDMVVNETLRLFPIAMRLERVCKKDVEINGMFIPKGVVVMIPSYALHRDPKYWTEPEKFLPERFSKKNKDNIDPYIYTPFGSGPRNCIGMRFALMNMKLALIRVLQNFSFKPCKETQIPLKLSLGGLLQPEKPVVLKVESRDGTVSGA

Row | Structure (SMILES) | VOC level in breath compared to baseline pre-ingestion controls [1] | metabolising enzyme (CYP3A4) | limonene in exhaled breath, drug-treated patients versus untreated control group [2] | concentration in breath [1, 3] | relative abundance among peppermint-related compounds in breath [1, 3]
1 | CC1CCC(C(C)C)C(O)C1 (racemic) [(±)-menthol] | large increase | – | – | – | –
2 | C=C(C)[C@H]1CC=C(C)CC1 [limonene] | large increase | – | higher secretion of limonene into breath | part-per-trillion (ppt) concentrations | most abundant
3 | CC1=CCC2CC1C2(C)C (stereo not drawn) [α-pinene] | large increase | – | – | – | –

The next lines start with results.

Row | VOC level in breath compared to baseline pre-ingestion controls [1] | Structure (SMILES) | metabolising enzyme (CYP3A4) | limonene in exhaled breath, drug-treated patients versus untreated control group [2] | concentration in breath [1, 3] | relative abundance among peppermint-related compounds in breath [1, 3]
4 | large increase | CC12CCC(CC1)C(C)(C)O2 [eucalyptol] | specifically metabolised by CYP3A4 | – | – | –
5 | large increase | C=C1CCC2CC1C2(C)C (stereo not drawn) [β-pinene] | – | – | – | most abundant
